From patent US7850946B2, “Macrocyclic cyanine and indocyanine bioconjugates provide improved biomedical applications” (Washington University in St. Louis, priority 2003, dated 2010)
Starred links: 1 amine or outer side, 2 acyl side, 3 side chain; linkers in the order of their positions; H or OH if unused. Positions of bridges follow the written chain, without caps; N, C: chain ends. Non-standard residues stand in square brackets, D forms with d. Residues, ends and D or L forms follow the SMILES beside them. X1 = CC1(C)C(/C=C/C=C/C=C/C=C2/N(CCC(=O)[*:2])c3ccc4ccccc4c3C2(C)C)=[N+](CCC(=O)[*:1])c2ccc3ccccc3c21

Key:
[1] = test system: CA20948 tumor-bearing mice; assay: Contrast agent-mediated optical imaging / biodistribution in tumor (CA20948) bearing mice; assay type: in vivo; conditions: 0.5 mL of a 1 μM solution via lateral tail vein
Source text: The instrument consists of an excitation source and a charge-coupled device (CCD) camera for signal detection. To image compounds such as compound 18 that absorb and emit radiation in the near infrared region, a nominal 780 nm collimated solid state laser source was used to excite the compounds. The nominal 50 mW of incident power from the laser was reduced to about 20 mW at the output of the fiber optic bundle. A CCD camera (12 bit, 1024×1024 pixel, back illuminated) was equipped with the appropriate interference filter to capture the emitted photons at 830 nm. Biodistribution of the dyes and receptor-specific optical contrast agent in mice were performed by injecting 0.5 mL of a 1 μM solution of the compound via the lateral tail vein of tumor (CA20948) bearing mice. […] In contrast, injection of somatostatin-avid optical probes in CA20948 tumor-bearing mice preferentially accumulates in the tumor.

[2] = target: T1, SSTR2 (Rattus norvegicus, UniProt P30680); assay: Receptor binding affinity: competition with 111In-DTPA-octreotide in AR42J tumor cell membranes; conditions: 37° C., 2 h, radioligand 111In-DTPA-octreotide, read-out: IC50 relative to 111In-DTPA-octreotide
T1 construct: A preparation of cell membranes was made from AR42J cells by brief sonication; endogenous in cells; host or cells: AR42J rat pancreatic carcinoma cells (membrane preparation)
Protocol: The binding affinity of somatostatin analogues was carried out using ^111In-DTPA-octreotide in AR42J tumor cells according to previously reported methods with minor modifications (Lewis, J. S., Lewis, M. R., Srinivasan, A., Schmidt, M. A., Wang, J., and Anderson, C. J. (1999) Comparison of Four ^64Cu-labeled Somatostatin Analogs in vitro and in a Tumor-bearing Rat Model: Evaluation of New Derivatives for PET Imaging and Targeted Radiotherapy. J. Med. Chem. 42, 1.341-1347). The AR42J rat pancreatic carcinoma cell line is known to express SSTR2 both in vitro and in vivo ((Rosewicz, S., Vogt, D., Harth, N., Grund, C., Franke, W. W., Ruppert, S., Schweitzer, E., Riecken, E.-O., and Wiedenman, B. (1992) An Amphicrine Pancreatic Cell Line: AR42J Cells Combine Exocrine and Neuroendocrine Properties. Eur. J. Cell Biol. 59, 80-91; Christophe, J. (1994) Pancreatic Tumoral Cell Line AR42J: An Amphicrine Model. Am. J.
Physiol. (Gastrointest. Liver Physiol.) 266 (29), G963-G971). […] The filters containing membrane-bound radioactivity were removed from the assay plate and counted using a Beckman 8000 automated well-typed counter (Fullerton, Calif.). Specific binding was calculated by subtracting the non-specifically bound radioactivity from that of total binding. The best-fit IC50 values were calculated using PRISM™ (Graphpad, San Diego, Calif.). […]

T1 sequence (P30680 whole entry): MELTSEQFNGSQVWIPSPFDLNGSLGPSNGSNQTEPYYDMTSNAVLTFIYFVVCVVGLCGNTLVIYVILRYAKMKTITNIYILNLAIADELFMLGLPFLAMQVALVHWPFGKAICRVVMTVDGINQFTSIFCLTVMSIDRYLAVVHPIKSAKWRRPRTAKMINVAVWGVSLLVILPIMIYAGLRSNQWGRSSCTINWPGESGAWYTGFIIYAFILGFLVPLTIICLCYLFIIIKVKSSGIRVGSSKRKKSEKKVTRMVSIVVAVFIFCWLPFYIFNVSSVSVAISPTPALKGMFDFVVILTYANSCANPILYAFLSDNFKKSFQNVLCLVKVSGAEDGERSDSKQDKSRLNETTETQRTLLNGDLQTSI

time to clearance from the blood postinjection [1]	biodistribution: site of accumulation ([1]; optical imaging 780 nm excitation / 830 nm emission)	IC50 [2]	Compound
≤ 1 h	accumulates in the liver		CC1(C)C(/C=C/C=C/C=C/C=C2/N(CCC(=O)O)c3ccc4ccccc4c3C2(C)C)=[N+](CCC(=O)O)c2ccc3ccccc3c21 [Compound 2, Bispropylcarboxymethylindocyanine Dye]
		8.17 nM	C[C@@H](O)[C@@H]1NC(=O)[C@@H]2CSSC[C@H](NC(=O)[C@@H](Cc3ccccc3)NC(=O)CC[N+]3=C(/C=C/C=C/C=C/C=C4/N(CCC(=O)NCCCC[C@@H](C(N)=O)NC1=O)c1ccc5ccccc5c1C4(C)C)C(C)(C)c1c3ccc3ccccc13)C(=O)N[C@@H](Cc1ccc(O)cc1)C(=O)N[C@H](Cc1c[nH]c3ccccc13)C(=O)N[C@@H](CCCCN)C(=O)N[C@@H]([C@@H](C)O)C(=O)N2 [Compound 18] ([dF]CY[dW]KTCTK-NH2; disulfide 2-7; linker N-9 via X1)
